Data on 22 compounds can be found in patent publication US20160207928A1, “NOVEL COMPOUNDS FOR THE TREATMENT OF CANCER” (BAYER PHARMA AKTIENGESELLSCHAFT, priority 2013, published 2016).

One may read the IC50 as the midpoint of a concentration-inhibition curve.

SMILES strings stand for the structures. A value given as a limit tells only on which side of the number the result lay.

For the test, the target named is T1, human kinase Mps-1 (Homo sapiens, UniProt P33981).
T1 construct: N-terminally GST-tagged human full length recombinant Mps-1 kinase; purchased Invitrogen, Karslruhe, Germany PV4071
T1 sequence (P33981 1-857): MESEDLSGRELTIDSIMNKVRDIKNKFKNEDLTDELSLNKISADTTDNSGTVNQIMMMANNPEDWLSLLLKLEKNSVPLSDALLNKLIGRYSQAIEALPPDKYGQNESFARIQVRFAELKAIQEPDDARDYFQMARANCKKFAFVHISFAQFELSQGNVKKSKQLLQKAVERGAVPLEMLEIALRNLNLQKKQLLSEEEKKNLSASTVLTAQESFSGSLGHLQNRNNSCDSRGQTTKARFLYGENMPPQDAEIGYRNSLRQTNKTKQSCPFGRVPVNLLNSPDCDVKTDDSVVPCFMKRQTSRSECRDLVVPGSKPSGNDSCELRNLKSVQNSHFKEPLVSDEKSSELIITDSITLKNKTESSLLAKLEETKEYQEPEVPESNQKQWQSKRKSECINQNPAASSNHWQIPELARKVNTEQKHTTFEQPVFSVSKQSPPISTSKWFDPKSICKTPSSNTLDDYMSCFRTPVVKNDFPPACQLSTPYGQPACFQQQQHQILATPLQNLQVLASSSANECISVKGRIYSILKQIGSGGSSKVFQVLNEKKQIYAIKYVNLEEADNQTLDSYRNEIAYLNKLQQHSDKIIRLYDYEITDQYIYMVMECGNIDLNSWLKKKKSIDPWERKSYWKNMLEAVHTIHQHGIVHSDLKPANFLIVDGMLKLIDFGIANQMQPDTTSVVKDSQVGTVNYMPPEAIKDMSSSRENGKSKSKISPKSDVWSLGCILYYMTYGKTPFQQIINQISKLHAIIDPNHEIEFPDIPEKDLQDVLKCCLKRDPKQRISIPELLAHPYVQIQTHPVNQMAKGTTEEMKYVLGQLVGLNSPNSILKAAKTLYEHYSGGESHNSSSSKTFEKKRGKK
The test can be described thus: Mps-1 kinase assay (TR-FRET, 10 μM ATP). The following applies: N-terminally GST-tagged human full length recombinant Mps-1, read-out: Mps-1 Inhibition, IC50 (Assay with 10 μM ATP). Format: biochemical. How it is done:
The human kinase Mps-1 phosphorylates a biotinylated substrate peptide. Detection of the phosphorylated product is achieved by time-resolved fluorescence resonance energy transfer (TR-FRET) from Europium-labelled anti-phospho-Serine/Threonine antibody as donor to streptavidin Labelled with cross-linked allophycocyanin (SA-XLent) as acceptor. Compounds are tested for their inhibition of the kinase activity.
N-terminally GST-tagged human full length recombinant Mps-1 kinase (purchased from Invitrogen, Karslruhe, Germany, cat. no PV4071) was used. As substrate for the kinase reaction a biotinylated peptide of the amino-acid sequence PWDPDDADITEILG (C-terminus in amide form, purchased from Biosynthan GmbH, Berlin) was used.
For the assay 50 nl of a 100-fold concentrated solution of the test compound in DMSO was pipetted into a black low volume 384 well microtiter plate (Greiner Bio-One, Frickenhausen, Germany), 2 μl of a solution of Mps-1 in assay buffer [0.1 mM sodium-ortho-vanadate, 10 mM MgCl2, 2 mM DTT, 25 mM Hepes pH 7.7, 0.05% BSA, 0.001% Pluronic F-127] were added and the mixture was incubated for 15 min at 22° C. to allow pre-binding of the test compounds to Mps-1 before the start of the kinase reaction. Then the kinase reaction was started by the addition of 3 μl of a solution of […] (ATP, 16.7 μM=>final conc. in the 5 μl assay volume is 10 μM) and peptide substrate (1.67 μM=>final conc. in the 5 μl assay volume is 1 μM) in assay buffer and the resulting mixture was incubated for a reaction time of 60 min at 22° C. The concentration of Mps-1 in the assay was adjusted to the activity of the enzyme lot and was chosen appropriate to have the assay in the linear range, typical enzyme concentrations were in the range of about 1 nM (final conc. in the 5 μl assay volume). The reaction was stopped by the addition of 3 μl of a solution of HTRF detection reagents (100 mM Hepes pH 7.4, 0.1% BSA, 40 mM EDTA, 140 nM Streptavidin-XLent [#61GSTXLB, Fa. Cis Biointernational, Marcoule, France], 1.5 nM anti-phospho(Ser/Thr)-Europium-antibody [#AD0180, PerkinElmer LAS, Rodgau-Jügesheim, Germany].
The resulting mixture was incubated 1 h at 22° C. to allow the binding of the phosphorylated peptide to the anti-phospho(Ser/Thr)-Europium-antibody. Subsequently the amount of phosphorylated substrate was evaluated by measurement of the resonance energy transfer from the Europium-labelled anti-phospho(Ser/Thr) antibody to the Streptavidin-XLent. Therefore, the fluorescence emissions at 620 nm and 665 nm after excitation at 350 nm was measured in a Viewlux TR-FRET reader (PerkinElmer LAS, Rodgau-Jügesheim, Germany). The “blank-corrected normalized ratio” (a Viewlux specific readout, similar to the traditional ratio of the emissions at 665 nm and at 622 nm, in which blank and Eu-donor crosstalk are subtracted from the 665 nm signal before the ratio is calculated) was taken as the measure for the amount of phosphorylated substrate. The data were normalised (enzyme reaction without inhibitor=0% inhibition, all other assay components but no enzyme=100% inhibition).
(TR-FRET usually uses a lanthanide donor and a delayed reading to cut background.)

Consider `COc1cc(C(=O)N2CCOCC2)ccc1Nc1nc2ccc(-c3ccc(NC(=O)Cc4ccc(F)cc4)cc3)nn2n1` [Example 1.1, 2-(4-fluorophenyl)-N-[4-(2-{[2-methoxy-4-(morpholin-4-ylcarbonyl)phenyl]amino}[1,2,4]triazolo[1,5-b]pyridazin-6-yl)phenyl]acetamide], for which the IC50 is not above 1 nM.
Next, `COc1cc(C(C)(C)O)ccc1Nc1nc2ccc(-c3ccc(NC(=O)Cc4ccc(F)cc4)cc3)nn2n1` [Example 1.2, 2-(4-fluorophenyl)-N-[4-(2-{[4-(2-hydroxypropan-2-yl)-2-methoxyphenyl]amino}[1,2,4]triazolo[1,5-b]pyridazin-6-yl)phenyl]acetamide]: not above 1 nM; `N#Cc1ccccc1Nc1nc2cnc(-c3ccc(NC(=O)Cc4ccc(F)cc4)cc3)cn2n1` [Example 2.1, N-(4-{2-[(2-cyanophenyl)amino][1,2,4]triazolo[1,5-a]pyrazin-6-yl}phenyl)-2-(4-fluorophenyl)acetamide]: not above 1 nM; `N#Cc1c(F)cccc1Nc1nc2cnc(-c3ccc(NC(=O)Cc4ccc(F)cc4)cc3)cn2n1` [Example 2.2, N-(4-{2-[(2-cyano-3-fluorophenyl)amino][1,2,4]triazolo[1,5-a]pyrazin-6-yl}phenyl)-2-(4-fluorophenyl)acetamide]: not above 1 nM.
`N#Cc1ccccc1Nc1nc2cnc(-c3ccc(NC(=O)Cc4ccccc4)cc3)cn2n1` [Example 2.3, N-(4-{2-[(2-cyanophenyl)amino][1,2,4]triazolo[1,5-a]pyrazin-6-yl}phenyl)-2-phenylacetamide]: the IC50 stood at 2.6 nM.
To `COc1cc(N2CCN(C)CC2)ccc1Nc1nc2cnc(-c3ccc(NC(=O)Cc4ccc(F)cc4)cc3)cn2n1` [Example 2.4, 2-(4-fluorophenyl)-N-[4-(2-{[2-methoxy-4-(4-methylpiperazin-1-yl)phenyl]amino}[1,2,4]triazolo[1,5-a]pyrazin-6-yl)phenyl]acetamide] belongs not above 1 nM; to `N#Cc1c(F)cccc1Nc1nc2cnc(-c3ccc(NC(=O)Cc4ccccc4)cc3)cn2n1` [Example 2.5, N-(4-{2-[(2-cyano-3-fluorophenyl)amino][1,2,4]triazolo[1,5-a]pyrazin-6-yl}phenyl)-2-phenylacetamide], not above 1 nM.
To `N#Cc1ccccc1Nc1nc2cnc(-c3ccc(NC(=O)Cc4ccc(F)c(F)c4)cc3)cn2n1` [Example 2.6, N-(4-{2-[(2-cyanophenyl)amino][1,2,4]triazolo[1,5-a]pyrazin-6-yl}phenyl)-2-(3,4-difluorophenyl)acetamide] belongs 2.1 nM; to `N#Cc1c(F)cccc1Nc1nc2cnc(-c3ccc(NC(=O)Cc4ccc(F)c(F)c4)cc3)cn2n1` [Example 2.7, N-(4-{2-[(2-cyano-3-fluorophenyl)amino][1,2,4]triazolo[1,5-a]pyrazin-6-yl}phenyl)-2-(3,4-difluorophenyl)acetamide], 2.9 nM; to `COc1cc(S(C)(=O)=O)ccc1Nc1nc2cnc(-c3ccc(NC(=O)Cc4ccc(F)cc4)cc3)cn2n1` [Example 2.8, 2-(4-fluorophenyl)-N-[4-(2-{[2-methoxy-4-(methylsulfonyl)phenyl]amino}[1,2,4]triazolo[1,5-a]pyrazin-6-yl)phenyl]acetamide], not above 1 nM.
To `Cc1cc(-c2cn3nc(Nc4ccccc4C#N)nc3cn2)cc(C)c1O` [Example 3.1, 2-{[6-(4-hydroxy-3,5-dimethylphenyl)[1,2,4]triazolo[1,5-a]pyrazin-2-yl]amino}benzonitrile] belongs 33.5 nM; to `N#Cc1ccccc1Nc1nc2cnc(-c3ccc(NC(=O)CC4CC4)cc3)cn2n1` [Example 3.2, N-(4-{2-[(2-cyanophenyl)amino][1,2,4]triazolo[1,5-a]pyrazin-6-yl}phenyl)-2-cyclopropylacetamide], 22.4 nM.
For `N#Cc1ccccc1Nc1nc2cnc(-c3cccc(C(=O)NC4CC4)c3)cn2n1` [Example 3.3, 3-{2-[(2-cyanophenyl)amino][1,2,4]triazolo[1,5-a]pyrazin-6-yl}-N-cyclopropylbenzamide], the concentration for half-maximal inhibition (IC50) was 84.1 nM.
Next, `CCNC(=O)c1cccc(-c2cn3nc(Nc4ccccc4C#N)nc3cn2)c1` [Example 3.4, 3-{2-[(2-cyanophenyl)amino][1,2,4]triazolo[1,5-a]pyrazin-6-yl}-N-ethylbenzamide]: 206 nM; `N#Cc1ccccc1Nc1nc2cnc(-c3cccc(C(=O)NC4CCCC4)c3)cn2n1` [Example 3.5, 3-{2-[(2-cyanophenyl)amino][1,2,4]triazolo[1,5-a]pyrazin-6-yl}-N-cyclopentylbenzamide]: 35.4 nM; `N#Cc1c(F)cccc1Nc1nc2cnc(-c3ccc(NC(=O)CC4CC4)cc3)cn2n1` [Example 3.6, N-(4-{2-[(2-cyano-3-fluorophenyl)amino][1,2,4]triazolo[1,5-a]pyrazin-6-yl}phenyl)-2-cyclopropylacetamide]: 14.6 nM.
Regarding `N#Cc1ccccc1Nc1nc2cnc(-c3ccc(N)cc3)cn2n1` [Example 3.7, 2-{[6-(4-aminophenyl)[1,2,4]triazolo[1,5-a]pyrazin-2-yl]amino}benzonitrile], the IC50 turned out to be 443 nM.
To `COc1ccccc1Nc1nc2cnc(-c3cc(C)c(O)c(C)c3)cn2n1` [Example 3.8, 4-{2-[(2-methoxyphenyl)amino][1,2,4]triazolo[1,5-a]pyrazin-6-yl}-2,6-dimethylphenol] belongs 71.6 nM; to `N#Cc1ccccc1Nc1nc2cnc(-c3cccc(C(=O)NC4CCCCC4)c3)cn2n1` [Example 3.9, 3-{2-[(2-cyanophenyl)amino][1,2,4]triazolo[1,5-a]pyrazin-6-yl}-N-cyclohexylbenzamide], 69 nM.
Next, `COc1cc(C(=O)N2CCOCC2)ccc1Nc1nc2ccc(-c3ccc(NC(=O)Cc4ccc(F)cc4)cc3)cc2s1` [Example 4.1, 2-(4-fluorophenyl)-N-[4-(2-{[2-methoxy-4-(morpholin-4-ylcarbonyl)phenyl]amino}-1,3-benzothiazol-6-yl)phenyl]acetamide]: not above 1 nM.
To `COc1cc(S(C)(=O)=O)ccc1Nc1nc2ccc(-c3ccc(NC(=O)Cc4ccc(F)cc4)cc3)cc2s1` [Example 4.2, 2-(4-fluorophenyl)-N-[4-(2-{[2-methoxy-4-(methylsulfonyl)phenyl]amino}-1,3-benzothiazol-6-yl)phenyl]acetamide] belongs 2.9 nM; to `Nc1nc2ccc(-c3ccc(NC(=O)Cc4ccc(F)cc4)cc3)cc2s1` [Example 4.3, N-[4-(2-amino-1,3-benzothiazol-6-yl)phenyl]-2-(4-fluorophenyl)acetamide], 8.6 nM.
